Key:
[1] = test system: mice injected with 5-Hydroxytryptamine (a nociceptive agent); conditions: orally administered; cited from earlier work
mice = conditions: orally administered; cited from earlier work
[2] = test system: free range broiler chickens; assay: dimethylheptylpyran capsules orally administered to free range broiler chickens; assay type: in vivo; conditions: 1 μg in cod liver oil capsules, twice-daily oral
Experimental: In a final embodiment of the present invention, soft gel capsules containing 1 μg of dimethylheptylpyran dissolved in cod liver oil are twice-daily orally administered to free range broiler chickens. Dimethylheptylpyran is an extremely potent cannabinoid receptor agonist.

humans [3] = assay: lowest observed effect level (LOEL) for psychoactive effects in humans; assay type: in vivo; conditions: orally administered
Experimental: Contrasting their extremely low toxicity, cannabinoids generally have very low effective doses. […] In humans, the lowest observed effect level (LOEL) for psychoactive effects induced by orally administered Δ^9-THC is 0.04 mg/kg, or 3.2 mg for the average 80 kg adult human. As a result, the therapeutic indices (LD50/ED50) of most cannabinoids are astoundingly high. It would be extremely difficult, if not impossible, for a human or animal to suffer permanent damage due to an intake of cannabinoids, absent a targeted effort to cause such damage.

[4] = accumulation of Δ^9-THC in milk of dairy water buffalo grazing Cannabis indica Himalaya Gold; assay type: in vivo; conditions: roughly 400 g Δ^9-THC orally per day, 20 L milk per day
Excerpt: In a second embodiment of the present invention, dairy water buffalo are grazed in a pasture cultivated for their consumption which contains cereals, legumes, and Cannabis indica “Himalaya Gold” (a hardy, outdoor cultivar of Cannabis). The approximate Δ^9-THC, CBN, and CBD levels of the Himalaya Gold Cannabis cultivar are 10.0%, 1.0%, and 0.3%, respectively. The animals are left to graze according to their preference, and all three types of plants are consumed in significant quantity. Particularly, the water buffalo consume about 32 kg of raw plant material per day, of which an average of 4 kg is Cannabis. Thus, roughly 400 g of Δ^9-THC is orally administered to the animals each day.
The cannabinoids present in the Himalaya Gold Cannabis induce physiological effects which affect the composition of the water buffalo's milk. More specifically, several fat-soluble cannabinoids, including Δ^9-THC and 11-Hydroxy-Δ^9-tetrahydrocannabinol (11-OH-Δ^9-THC; an active metabolite of Δ^9-THC), accumulate in the milk during lactogenesis. The cannabinoid-containing raw milk is then harvested from the water buffalo by use of a rotary parlor milking station. […]

humans [5] = conditions: orally administered; cited from earlier work
[6] = accumulation of Δ^9-THC in adipose tissue of finishing hogs given Cannabis tincture in water; conditions: 100 mg Δ^9-THC orally each day

CCCCCc1cc(O)c2c(c1)OC(C)(C)c1ccc(C)cc1-2 [CBN, cannabinol]
median effective dose (ED50) for antinociception [1]: 46.2 mg/kg
median lethal dose (LD50) (mice): 12,700 mg/kg

CCCCCC(C)C(C)c1cc(O)c2c(c1)OC(C)(C)C1=C2CC(C)CC1 (stereo not shown) [dimethylheptylpyran]
calming effect [2]: significantly calms the chickens
effect on aggressive behavior [2]: inhibits aggressive behavior

CCCCCc1cc(O)c2c(c1)OC(C)(C)[C@@H]1CCC(C)=C[C@@H]21 [Δ^9-THC, delta-9-tetrahydrocannabinol]
LOEL for psychoactive effects, for the average 80 kg adult human (humans [3]): 3.2 mg
average transfer rate into milk [4]: 0.15%
Δ^9-THC content of milk [4]: around 30 mg per L
median effective dose (ED50) for antinociception [1]: 1.0 mg/kg
lowest observed effect level (LOEL) for psychoactive effects (humans [5]): 0.04 mg/kg
median lethal dose (LD50) (mice): 21,600 mg/kg
average storage rate in adipose tissue [6]: 0.1%

C=C(C)[C@@H]1CCC(C)=C[C@H]1c1c(O)cc(CCCCC)cc1O [CBD, cannabidiol]
median lethal dose (LD50) (mice): 13,500 mg/kg

[Cl-].[Na+] [sodium chloride]
median lethal dose (LD50) (mice): 4,000 mg/kg
